Values after ≈ are worked out from the molar mass of the structure shown.
How the values were obtained:
Type in all cases: functional
Histamine H2 receptor = Histamine H2 receptor (Cavia porcellus, UniProt P47747); experiment: Histamine H2 receptor antagonistic activity
Helicobacter pylori = experiment: Compound was tested for inhibitory activity against Helicobacter pylori No. 9470
[1] = target: Histamine H2 receptor (Cavia porcellus) (UniProt P47747); experiment: Compound was tested for Histamine H2 receptor antagonistic activity at 10 ug/ml
Histamine H2 receptor (Cavia porcellus), sequence (P47747 whole entry): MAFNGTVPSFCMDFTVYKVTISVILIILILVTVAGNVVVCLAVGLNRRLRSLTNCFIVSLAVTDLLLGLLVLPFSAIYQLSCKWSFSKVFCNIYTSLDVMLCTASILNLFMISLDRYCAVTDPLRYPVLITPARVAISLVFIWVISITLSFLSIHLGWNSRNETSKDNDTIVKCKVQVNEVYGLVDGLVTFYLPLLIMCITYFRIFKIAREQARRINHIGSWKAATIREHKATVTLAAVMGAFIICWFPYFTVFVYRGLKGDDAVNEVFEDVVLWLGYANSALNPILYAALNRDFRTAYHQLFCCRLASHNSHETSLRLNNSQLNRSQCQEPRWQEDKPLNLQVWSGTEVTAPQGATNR

Histamine H2 receptor, sequence (P47747 whole entry): as above

Row | IC50 (Histamine H2 receptor) [µM] | MIC (Helicobacter pylori) [µg/mL] | inhibition [1] [%] | Compound
1 | 1.27 | > 100 |  | C=CCNc1c(NC/C=C\COc2csc(CN3CCCCC3)c2)c(=O)c1=O
2 | 0.809 | > 100 |  | CN(C)CC/N=c1\c(O)c(O)\c1=N/C/C=C\COc1csc(CN2CCCCC2)c1
3 | 1.93 | 12.5 (≈ 31 µM) |  | CC(C)/N=c1\c(O)c(O)\c1=N/C/C=C\COc1csc(CN2CCCCC2)c1
4 |  | 6.25 (≈ 11.5 µM) | 39 | O=c1c(NC/C=C\COc2csc(CN3CCCCC3)c2)c(NCC(F)(F)C(F)(F)C(F)(F)F)c1=O
5 | 0.685 | 100 (≈ 311 µM) |  | CN(C)Cc1cc(OC/C=C\C/N=c2\c(O)c(O)c2=N)cs1
6 | 1.06 | 1.56 (≈ 3.83 µM) |  | O=c1c(NC/C=C\COc2csc(CN3CCCCC3)c2)c(NCCF)c1=O
7 | 0.748 | 25 (≈ 60.3 µM) |  | N#CCCNc1c(NC/C=C\COc2csc(CN3CCCCC3)c2)c(=O)c1=O
8 | 1.84 | 12.5 (≈ 33.3 µM) |  | C/N=c1\c(O)c(O)\c1=N/C/C=C\COc1csc(CN2CCCCC2)c1
9 | 0.443 | 100 (≈ 277 µM) |  | Nc1c(NC/C=C\COc2csc(CN3CCCCC3)c2)c(=O)c1=O
10 | 3.34 | > 100 |  | CN/C(=C/[N+](=O)[O-])NCCSCc1ccc(CN(C)C)o1 [RANITIDINE]
11 | 1.14 | > 100 |  | COCC/N=c1\c(O)c(O)\c1=N/C/C=C\COc1csc(CN2CCCCC2)c1
12 |  | 25 (≈ 50.7 µM) | 43 | O=c1c(NC/C=C\COc2csc(CN3CCCCC3)c2)c(NCC(F)(F)C(F)(F)F)c1=O
13 | 4.1 | > 100 |  | CC(=O)OCC(=O)NCCCOc1cccc(CN2CCCCC2)c1 [ROXATIDINE ACETATE]

Row | Compound | IC50 (Histamine H2 receptor) [µM] | MIC (Helicobacter pylori) [µg/mL] | inhibition [1] [%]
14 | CN/C(=N\CCSCc1nc[nH]c1C)NC#N [CIMETIDINE] |  | > 100 | 

From ChEMBL document CHEMBL1151499, “Synthesis of a piperidinomethylthiophene derivative as H2-antagonist with inhibitory activity against Helicobacter pylori” (Bioorg Med Chem Lett, 1996)
